Tests used:
Assay type in all cases: cell-based
human TLR7 = biological target: T1, human TLR7 (Homo sapiens, UniProt Q9NYK1); assay: TLR7 inhibition reporter assay (HEK-Blue cells, SEAP reporter, gardiquimod stimulation); conditions: HEK-Blue cells overexpressing human TLR7, SEAP reporter, gardiquimod 7.5 μM; read-out: TLR7 IC50
T1 construct: host or cells: HEK-Blue cells
T1 sequence (Q9NYK1 27-1049): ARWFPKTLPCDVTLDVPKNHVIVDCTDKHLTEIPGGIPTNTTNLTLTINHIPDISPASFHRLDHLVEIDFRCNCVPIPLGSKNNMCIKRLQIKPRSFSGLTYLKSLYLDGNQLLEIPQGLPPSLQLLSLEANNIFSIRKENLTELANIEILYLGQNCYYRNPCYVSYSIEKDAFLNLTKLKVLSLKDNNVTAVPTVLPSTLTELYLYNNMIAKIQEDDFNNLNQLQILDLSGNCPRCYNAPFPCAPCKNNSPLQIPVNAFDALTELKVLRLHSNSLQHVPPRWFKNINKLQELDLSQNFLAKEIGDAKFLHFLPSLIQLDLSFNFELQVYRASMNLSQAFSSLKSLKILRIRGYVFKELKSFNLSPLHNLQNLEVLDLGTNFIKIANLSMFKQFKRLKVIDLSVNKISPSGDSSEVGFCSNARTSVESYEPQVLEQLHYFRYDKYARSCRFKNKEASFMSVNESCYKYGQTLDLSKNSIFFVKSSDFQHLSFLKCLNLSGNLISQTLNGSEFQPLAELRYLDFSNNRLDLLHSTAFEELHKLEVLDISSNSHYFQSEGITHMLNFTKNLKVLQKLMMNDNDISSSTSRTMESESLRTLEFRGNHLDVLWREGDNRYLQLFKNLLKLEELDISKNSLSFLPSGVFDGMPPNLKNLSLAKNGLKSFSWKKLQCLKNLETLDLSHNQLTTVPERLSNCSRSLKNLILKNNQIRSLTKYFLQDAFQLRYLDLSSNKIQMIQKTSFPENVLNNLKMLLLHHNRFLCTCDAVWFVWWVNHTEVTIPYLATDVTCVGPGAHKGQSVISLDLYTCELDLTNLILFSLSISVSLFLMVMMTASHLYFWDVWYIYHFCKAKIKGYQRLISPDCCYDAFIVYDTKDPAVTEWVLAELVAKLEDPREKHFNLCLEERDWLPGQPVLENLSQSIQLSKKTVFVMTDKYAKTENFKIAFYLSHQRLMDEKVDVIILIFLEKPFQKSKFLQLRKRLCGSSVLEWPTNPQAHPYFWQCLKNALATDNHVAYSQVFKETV
Summary of the method: (§1)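 Agonists used: gardiquimod 7.5 μM (TLR7), R848 15.9 μM (TLR8), ODN2006 5 nM (TLR9), added after 30 min room-temperature compound pre-treatment (0.05 nM–50 μM) of receptor-overexpressing HEK-Blue cells. SEAP reporter (NF-κB/AP-1 driven) read after 22 h at 37 °C; inhibition scaled between agonist+DMSO and reference-inhibitor wells.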

human TLR8 = biological target: T2, human TLR8 (Homo sapiens, UniProt Q9NR97); assay: TLR8 inhibition reporter assay (HEK-Blue cells, SEAP reporter, R848 stimulation); conditions: HEK-Blue cells overexpressing human TLR8, SEAP reporter, R848 15.9 μM; read-out: TLR8 IC50
T2 construct: host or cells: HEK-Blue cells
T2 sequence (Q9NR97 27-1041): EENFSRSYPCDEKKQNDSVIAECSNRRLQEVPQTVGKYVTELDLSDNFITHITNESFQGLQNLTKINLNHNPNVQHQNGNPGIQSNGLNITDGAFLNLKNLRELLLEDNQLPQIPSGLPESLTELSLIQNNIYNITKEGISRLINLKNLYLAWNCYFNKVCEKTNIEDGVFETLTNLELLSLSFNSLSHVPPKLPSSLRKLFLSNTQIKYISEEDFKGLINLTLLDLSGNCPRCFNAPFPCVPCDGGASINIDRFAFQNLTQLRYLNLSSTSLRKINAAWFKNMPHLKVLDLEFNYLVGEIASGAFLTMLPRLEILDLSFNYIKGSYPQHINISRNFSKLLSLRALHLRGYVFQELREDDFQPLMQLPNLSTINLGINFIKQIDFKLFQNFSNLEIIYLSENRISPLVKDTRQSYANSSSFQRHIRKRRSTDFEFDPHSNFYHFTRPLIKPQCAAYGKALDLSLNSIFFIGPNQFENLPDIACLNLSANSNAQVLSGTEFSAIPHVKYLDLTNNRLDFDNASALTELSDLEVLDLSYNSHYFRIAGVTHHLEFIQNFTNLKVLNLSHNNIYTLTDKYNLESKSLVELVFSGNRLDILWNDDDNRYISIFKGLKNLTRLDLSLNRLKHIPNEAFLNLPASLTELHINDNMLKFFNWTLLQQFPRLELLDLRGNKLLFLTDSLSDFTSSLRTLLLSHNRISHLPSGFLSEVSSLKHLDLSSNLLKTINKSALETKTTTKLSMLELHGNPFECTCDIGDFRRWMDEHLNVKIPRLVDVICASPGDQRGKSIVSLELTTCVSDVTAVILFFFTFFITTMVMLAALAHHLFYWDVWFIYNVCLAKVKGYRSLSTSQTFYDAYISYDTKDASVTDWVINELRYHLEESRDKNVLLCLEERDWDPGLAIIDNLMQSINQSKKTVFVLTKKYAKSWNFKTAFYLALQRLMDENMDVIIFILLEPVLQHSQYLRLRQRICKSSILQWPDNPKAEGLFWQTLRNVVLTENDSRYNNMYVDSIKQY
Summary of the method: as §1

human TLR9 = biological target: T3, human TLR9 (Homo sapiens, UniProt Q9NR96); assay: TLR9 inhibition reporter assay (HEK-Blue cells, SEAP reporter, ODN2006 stimulation); conditions: HEK-Blue cells overexpressing human TLR9, SEAP reporter, ODN2006 5 nM
T3 construct: host or cells: HEK-Blue cells
T3 sequence (Q9NR96 26-1032): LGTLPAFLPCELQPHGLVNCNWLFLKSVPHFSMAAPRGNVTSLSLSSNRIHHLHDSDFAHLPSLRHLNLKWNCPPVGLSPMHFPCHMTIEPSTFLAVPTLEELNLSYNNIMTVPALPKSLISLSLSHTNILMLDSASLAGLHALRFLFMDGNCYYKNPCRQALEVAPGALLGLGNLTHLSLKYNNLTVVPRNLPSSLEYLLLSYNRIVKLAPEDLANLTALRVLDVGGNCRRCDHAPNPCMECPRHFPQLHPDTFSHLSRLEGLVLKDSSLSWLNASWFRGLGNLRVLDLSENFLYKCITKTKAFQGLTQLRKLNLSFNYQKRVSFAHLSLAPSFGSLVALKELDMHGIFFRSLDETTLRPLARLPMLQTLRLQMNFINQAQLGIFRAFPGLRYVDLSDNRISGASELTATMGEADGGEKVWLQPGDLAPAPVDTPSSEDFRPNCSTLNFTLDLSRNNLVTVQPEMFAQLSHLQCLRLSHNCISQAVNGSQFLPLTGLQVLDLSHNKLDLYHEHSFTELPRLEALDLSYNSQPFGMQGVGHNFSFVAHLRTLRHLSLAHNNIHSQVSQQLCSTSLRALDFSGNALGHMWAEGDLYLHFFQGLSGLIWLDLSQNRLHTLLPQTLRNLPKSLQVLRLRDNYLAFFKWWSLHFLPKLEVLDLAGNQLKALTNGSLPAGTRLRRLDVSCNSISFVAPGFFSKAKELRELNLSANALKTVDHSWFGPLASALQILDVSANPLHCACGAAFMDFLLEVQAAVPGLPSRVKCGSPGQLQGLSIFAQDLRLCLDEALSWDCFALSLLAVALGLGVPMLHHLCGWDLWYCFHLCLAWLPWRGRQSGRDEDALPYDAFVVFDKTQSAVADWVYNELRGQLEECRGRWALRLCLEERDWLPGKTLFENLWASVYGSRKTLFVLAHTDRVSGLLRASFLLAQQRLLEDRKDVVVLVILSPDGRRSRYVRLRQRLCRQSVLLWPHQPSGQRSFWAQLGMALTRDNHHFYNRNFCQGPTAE
Summary of the method: as §1

Cc1c(-c2[nH]c3sc(C4CCC(N5CC(O)(C(F)(F)F)C5)CC4)nc3c2C(C)C)cn2ncnc2c1C (single isomer, unassigned) [Example 236, 1-(4-(5-(7,8-dimethyl-[1,2,4]triazolo[1,5-a]pyridin-6-yl)-6-isopropyl-4H-pyrrolo[3,2-d]thiazol-2-yl)cyclohexyl)-3-(trifluoromethyl)azetidin-3-ol]
IC50 (human TLR7): 1.36 nM
IC50 (human TLR8): 18.7 nM
IC50 (human TLR9): 25400 nM

Cc1c(-c2[nH]c3sc(C4CCC(N5CCC6(CC5)COC6)CC4)nc3c2C(C)C)cn2ncnc2c1C (single isomer, unassigned) [Example 237, 7-(4-(5-(7,8-dimethyl-[1,2,4]triazolo[1,5-a]pyridin-6-yl)-6-isopropyl-4H-pyrrolo[3,2-d]thiazol-2-yl)cyclohexyl)-2-oxa-7-azaspiro[3.5]nonane]
IC50 (human TLR7): 4.87 nM
IC50 (human TLR8): 0.29 nM
IC50 (human TLR9): 5490 nM

Cc1c(-c2[nH]c3sc(C4CCC(N5CCC6(CC5)COC6)CC4)nc3c2C(C)C)cn2ncnc2c1C (single isomer, unassigned) [Example 238, 7-(4-(5-(7,8-dimethyl-[1,2,4]triazolo[1,5-a]pyridin-6-yl)-6-isopropyl-4H-pyrrolo[3,2-d]thiazol-2-yl)cyclohexyl)-2-oxa-7-azaspiro[3.5]nonane]
IC50 (human TLR7): 5.4 nM
IC50 (human TLR8): 5.96 nM
IC50 (human TLR9): 5370 nM

Cc1c(-c2[nH]c3sc(C4CCC(N5CC6(CCOCC6)C5)CC4)nc3c2C(C)C)cn2ncnc2c1C (single isomer, unassigned) [Example 239, 2-(4-(5-(7,8-dimethyl-[1,2,4]triazolo[1,5-a]pyridin-6-yl)-6-isopropyl-4H-pyrrolo[3,2-d]thiazol-2-yl)cyclohexyl)-7-oxa-2-azaspiro[3.5]nonane]
IC50 (human TLR7): 1.96 nM
IC50 (human TLR8): 0.27 nM
IC50 (human TLR9): 9920 nM

Cc1c(-c2[nH]c3sc(C4CCC(N5CC6(CCOCC6)C5)CC4)nc3c2C(C)C)cn2ncnc2c1C (single isomer, unassigned) [Example 240, 2-(4-(5-(7,8-dimethyl-[1,2,4]triazolo[1,5-a]pyridin-6-yl)-6-isopropyl-4H-pyrrolo[3,2-d]thiazol-2-yl)cyclohexyl)-7-oxa-2-azaspiro[3.5]nonane]
IC50 (human TLR7): 3.72 nM
IC50 (human TLR8): 2.82 nM
IC50 (human TLR9): 6230 nM

Cc1c(-c2[nH]c3sc(C4CCC(NC5COC5)CC4)nc3c2C(C)C)cn(C)c(=O)c1C (single isomer, unassigned) [Example 241, 5-(6-isopropyl-2-(4-(oxetan-3-ylamino)cyclohexyl)-4H-pyrrolo[3,2-d]thiazol-5-yl)-1,3,4-trimethylpyridin-2(1H)-one]
IC50 (human TLR7): 8.06 nM
IC50 (human TLR8): 3.19 nM
IC50 (human TLR9): > 50000 nM

Cc1c(-c2[nH]c3sc(C4CCC(NC5COC5)CC4)nc3c2C(C)C)cn(C)c(=O)c1C (single isomer, unassigned) [Example 242, 5-(6-isopropyl-2-(4-(oxetan-3-ylamino)cyclohexyl)-4H-pyrrolo[3,2-d]thiazol-5-yl)-1,3,4-trimethylpyridin-2(1H)-one]
IC50 (human TLR7): 47.1 nM
IC50 (human TLR8): 16.1 nM
IC50 (human TLR9): > 50000 nM

COC(C)(C)CNC1CCC(c2nc3c(C(C)C)c(-c4cn(C)c(=O)c(C)c4C)[nH]c3s2)CC1 (single isomer, unassigned) [Example 243, 5-(6-isopropyl-2-(4-((2-methoxy-2-methylpropyl)amino)cyclohexyl)-4H-pyrrolo[3,2-d]thiazol-5-yl)-1,3,4-trimethylpyridin-2(1H)-one]
IC50 (human TLR7): 16.4 nM
IC50 (human TLR8): 2.1 nM
IC50 (human TLR9): 29800 nM

COC(C)(C)CNC1CCC(c2nc3c(C(C)C)c(-c4cn(C)c(=O)c(C)c4C)[nH]c3s2)CC1 (single isomer, unassigned) [Example 244, 5-(6-isopropyl-2-(4-((2-methoxy-2-methylpropyl)amino)cyclohexyl)-4H-pyrrolo[3,2-d]thiazol-5-yl)-1,3,4-trimethylpyridin-2(1H)-one]
IC50 (human TLR7): 44 nM
IC50 (human TLR8): 17.5 nM
IC50 (human TLR9): 25300 nM

Cc1c(-c2[nH]c3sc(C4CCC(N5CC6(COC6)C5)CC4)nc3c2C(C)C)cn(C)c(=O)c1C (single isomer, unassigned) [Example 245, 5-(2-(4-(2-oxa-6-azaspiro[3.3]heptan-6-yl)cyclohexyl)-6-isopropyl-4H-pyrrolo[3,2-d]thiazol-5-yl)-1,3,4-trimethylpyridin-2(1H)-one]
IC50 (human TLR7): 2.6 nM
IC50 (human TLR8): 0.65 nM
IC50 (human TLR9): 22900 nM

Cc1c(-c2[nH]c3sc(C4CCC(N5CC6(COC6)C5)CC4)nc3c2C(C)C)cn(C)c(=O)c1C (single isomer, unassigned) [Example 246, 5-(2-(4-(2-oxa-6-azaspiro[3.3]heptan-6-yl)cyclohexyl)-6-isopropyl-4H-pyrrolo[3,2-d]thiazol-5-yl)-1,3,4-trimethylpyridin-2(1H)-one]
IC50 (human TLR7): 60.8 nM
IC50 (human TLR8): 154 nM
IC50 (human TLR9): > 50000 nM
